Results taken from patent US20240368096A1 (Enanta Pharmaceuticals, Inc., priority 2022, published 2024).

What follows are molecules tested on HBV (assay: HBV infection in HepG2-NTCP cells (HBeAg AlphaLISA in supernatants)). Conditions: Hepatitis B virus, 192 h; HBV infection of HepG2-NTCP cells; HBeAg in supernatants at day 8 post infection; read-out: Cellular EC50.
Assay type: cell-based
Procedure, shortened: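 Readout was day-8 supernatant HBeAg by AlphaLISA, with EC50 set against DMSO controls and binned A<0.1 μM, B 0.1-1 μM, C>1 μM. Compounds were added 2 h before HBV (2000 GE/cell, 4% PEG, 0.5% DMSO) to HepG2-NTCP A3 cells; from day 1 medium held 2.5% DMSO.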

| Compound | EC50 |
| --- | --- |
| CC(C)CS(=O)(=O)Nc1cc(-c2cc3c(cc2Cl)N(c2ccccc2)C[C@@H](C2CCCCC2)N(C)S3(=O)=O)sc1C(=O)O [Example 276] | < 0.1 µM |
| CC(C)COC(=O)Nc1c(F)cc(-c2cc3c(cc2Cl)N(c2ccccc2)C[C@@H](C2CCCCC2)N(C)S3(=O)=O)cc1C(=O)O [Example 277] | < 0.1 µM |
| COc1cc(-c2cc3c(cc2Cl)N(c2ccccc2)C[C@@H](C2CCCCC2)N(C)S3(=O)=O)cc(C(=O)O)c1NC(=O)OCC(C)C [Example 278] | < 0.1 µM |
| CC(C)COC(=O)Nc1c(Cl)cc(-c2cc3c(cc2Cl)N(c2ccccc2)C[C@@H](C2CCCCC2)N(C)S3(=O)=O)cc1C(=O)O [Example 279] | < 0.1 µM |
| CN1[C@H](C2CCCCC2)CN(c2cncc(F)c2)c2cc(Cl)c(-c3ccc(F)c(C(=O)O)c3)cc2S1(=O)=O [Example 280, (R)-5-(7-chloro-3-cyclohexyl-5-(5-fluoropyridin-3-yl)-2-methyl-1,1-dioxido-2,3,4,5-tetrahydrobenzo[f][1,2,5]thiadiazepin-8-yl)-2-fluorobenzoic acid] | 0.1 to 1 µM |
| Cc1cncc(N2C[C@@H](C3CCCCC3)N(C)S(=O)(=O)c3cc(-c4ccc(F)c(C(=O)O)c4)c(Cl)cc32)c1 [Example 281] | < 0.1 µM |
| CN1[C@H](C2CCCCC2)CN(c2cncc(C(F)(F)F)c2)c2cc(Cl)c(-c3ccc(F)c(C(=O)O)c3)cc2S1(=O)=O [Example 282] | 0.1 to 1 µM |
| CN1[C@H](C2CCCCC2)CN(c2ccncc2)c2cc(Cl)c(-c3ccc(F)c(C(=O)O)c3)cc2S1(=O)=O [Example 283] | > 1 µM |
| CN1[C@H](C2CCCCC2)CN(c2ccnc(F)c2)c2cc(Cl)c(-c3ccc(F)c(C(=O)O)c3)cc2S1(=O)=O [Example 284] | < 0.1 µM |
| Cc1cc(N2C[C@@H](C3CCCCC3)N(C)S(=O)(=O)c3cc(-c4ccc(F)c(C(=O)O)c4)c(Cl)cc32)ccn1 [Example 285] | > 1 µM |
| CN1[C@H](C2CCCCC2)CN(c2cncnc2)c2cc(Cl)c(-c3ccc(F)c(C(=O)O)c3)cc2S1(=O)=O [Example 286] | 0.1 to 1 µM |
| Cc1ncc(N2C[C@@H](C3CCCCC3)N(C)S(=O)(=O)c3cc(-c4ccc(F)c(C(=O)O)c4)c(Cl)cc32)cn1 [Example 287] | 0.1 to 1 µM |
| CN1[C@H](C2CCCCC2)CN(c2cnc(C(F)(F)F)nc2)c2cc(Cl)c(-c3ccc(F)c(C(=O)O)c3)cc2S1(=O)=O [Example 288] | 0.1 to 1 µM |
| CN1[C@H](C2CCCCC2)CN(c2cnccn2)c2cc(Cl)c(-c3ccc(F)c(C(=O)O)c3)cc2S1(=O)=O [Example 289] | 0.1 to 1 µM |
| CN1[C@H](C2CCCCC2)CN(c2ccc(C#N)cc2)c2cc(Cl)c(-c3ccc(F)c(C(=O)O)c3)cc2S1(=O)=O [Example 290] | 0.1 to 1 µM |
| CN1[C@H](C2CCCCC2)CN(c2cccc(C#N)c2)c2cc(Cl)c(-c3ccc(F)c(C(=O)O)c3)cc2S1(=O)=O [Example 291] | < 0.1 µM |
| CN1[C@H](C2CCCCC2)CN(c2ccc(OC(F)(F)F)cc2)c2cc(Cl)c(-c3ccc(F)c(C(=O)O)c3)cc2S1(=O)=O [Example 292] | < 0.1 µM |
| CN1[C@H](C2CCCCC2)CN(c2cccc(OC(F)(F)F)c2)c2cc(Cl)c(-c3ccc(F)c(C(=O)O)c3)cc2S1(=O)=O [Example 293] | < 0.1 µM |
| CN1[C@H](C2CCCCC2)CN(c2ccc(F)cc2)c2cc(Cl)c(-c3ccc(F)c(C(=O)O)c3)cc2S1(=O)=O [Example 294] | 0.1 to 1 µM |
| CN1[C@H](C2CCCCC2)CN(c2cccc(F)c2)c2cc(Cl)c(-c3ccc(F)c(C(=O)O)c3)cc2S1(=O)=O [Example 295] | 0.1 to 1 µM |
| CN1[C@H](C2CCCCC2)CN(c2cccc(Cl)c2)c2cc(Cl)c(-c3ccc(F)c(C(=O)O)c3)cc2S1(=O)=O [Example 296] | < 0.1 µM |
| CN1[C@H](C2CCCCC2)CN(c2cc(F)cc(F)c2)c2cc(Cl)c(-c3ccc(F)c(C(=O)O)c3)cc2S1(=O)=O [Example 297] | < 0.1 µM |
| CN1[C@H](C2CCCCC2)CN(c2cc(F)c(F)c(F)c2)c2cc(Cl)c(-c3ccc(F)c(C(=O)O)c3)cc2S1(=O)=O [Example 298] | 0.1 to 1 µM |
| CN1[C@H](C2CCCCC2)CN(c2cc(F)cc(F)c2F)c2cc(Cl)c(-c3ccc(F)c(C(=O)O)c3)cc2S1(=O)=O [Example 299] | 0.1 to 1 µM |
| CN1[C@H](C2CCCCC2)CN(c2ccc(C(F)(F)F)cc2)c2cc(Cl)c(-c3ccc(F)c(C(=O)O)c3)cc2S1(=O)=O [Example 300] | < 0.1 µM |
| CN1[C@H](C2CCCCC2)CN(c2cccc(C(F)(F)F)c2)c2cc(Cl)c(-c3ccc(F)c(C(=O)O)c3)cc2S1(=O)=O [Example 301] | 0.1 to 1 µM |
| CN1[C@H](C2CCCCC2)CN(c2ccc(C(F)(F)F)cc2F)c2cc(Cl)c(-c3ccc(F)c(C(=O)O)c3)cc2S1(=O)=O [Example 302] | 0.1 to 1 µM |
| CN1[C@H](C2CCCCC2)CN(c2ccc(C(F)F)cc2)c2cc(Cl)c(-c3ccc(F)c(C(=O)O)c3)cc2S1(=O)=O [Example 303] | 0.1 to 1 µM |

| Compound | EC50 |
| --- | --- |
| COc1cccc(N2C[C@@H](C3CCCCC3)N(C)S(=O)(=O)c3cc(-c4ccc(F)c(C(=O)O)c4)c(Cl)cc32)c1 [Example 305] | 0.1 to 1 µM |
| COc1ccc(N2C[C@@H](C3CCCCC3)N(C)S(=O)(=O)c3cc(-c4ccc(F)c(C(=O)O)c4)c(Cl)cc32)cc1 [Example 306, (R)-5-(7-chloro-3-cyclohexyl-5-(4-methoxyphenyl)-2-methyl-1,1-dioxido-2,3,4,5-tetrahydrobenzo[f][1,2,5]thiadiazepin-8-yl)-2-fluorobenzoic acid] | 0.1 to 1 µM |
| CCOc1cccc(N2C[C@@H](C3CCCCC3)N(C)S(=O)(=O)c3cc(-c4ccc(F)c(C(=O)O)c4)c(Cl)cc32)c1 [Example 308] | < 0.1 µM |
| CCOc1ccc(N2C[C@@H](C3CCCCC3)N(C)S(=O)(=O)c3cc(-c4ccc(F)c(C(=O)O)c4)c(Cl)cc32)cc1 [Example 309] | 0.1 to 1 µM |
| CCCCOc1cccc(N2C[C@@H](C3CCCCC3)N(C)S(=O)(=O)c3cc(-c4ccc(F)c(C(=O)O)c4)c(Cl)cc32)c1 [Example 310] | < 0.1 µM |
| CCCCOc1ccc(N2C[C@@H](C3CCCCC3)N(C)S(=O)(=O)c3cc(-c4ccc(F)c(C(=O)O)c4)c(Cl)cc32)cc1 [Example 311] | 0.1 to 1 µM |
| COCCOc1cccc(N2C[C@@H](C3CCCCC3)N(C)S(=O)(=O)c3cc(-c4ccc(F)c(C(=O)O)c4)c(Cl)cc32)c1 [Example 312] | < 0.1 µM |
| CN1[C@H](C2CCCCC2)CN(c2cccc(OCC(F)(F)F)c2)c2cc(Cl)c(-c3ccc(F)c(C(=O)O)c3)cc2S1(=O)=O [Example 313] | < 0.1 µM |
| CN1[C@H](C2CCCCC2)CN(c2ccc3c(c2)OC(F)(F)O3)c2cc(Cl)c(-c3ccc(F)c(C(=O)O)c3)cc2S1(=O)=O [Example 314] | < 0.1 µM |
| CN1[C@H](C2CCCCC2)CN(CC2CC2)c2cc(Cl)c(-c3ccc(F)c(C(=O)O)c3)cc2S1(=O)=O [Example 319, (R)-5-(7-chloro-3-cyclohexyl-5-(cyclopropylmethyl)-2-methyl-1,1-dioxido-2,3,4,5-tetrahydrobenzo[f][1,2,5]thiadiazepin-8-yl)-2-fluorobenzoic acid] | 0.1 to 1 µM |
| CN1[C@H](C2CCCCC2)CN(C2CCC2)c2cc(Cl)c(-c3ccc(F)c(C(=O)O)c3)cc2S1(=O)=O [Example 322] | 0.1 to 1 µM |
| CCCCCCN1C[C@@H](C2CCCCC2)N(C)S(=O)(=O)c2cc(-c3ccc(F)c(C(=O)O)c3)c(Cl)cc21 [Example 324] | 0.1 to 1 µM |
| CC(C)CC1CN(C2CCCC2)c2cc(Cl)c(-c3cccc(C(=O)O)c3)cc2S(=O)(=O)N1C (stereo not shown) [Example 326, 3-(7-chloro-5-cyclopentyl-3-isobutyl-2-methyl-1,1-dioxido-2,3,4,5-tetrahydrobenzo[f][1,2,5]thiadiazepin-8-yl)benzoic acid] | 0.1 to 1 µM |
| CC(C)CC1CN(C2CC2)c2cc(Cl)c(-c3cccc(C(=O)O)c3)cc2S(=O)(=O)N1C (stereo not shown) [Example 327] | 0.1 to 1 µM |
| CC(C)CC1CN(C2CCC2)c2cc(Cl)c(-c3cccc(C(=O)O)c3)cc2S(=O)(=O)N1C (stereo not shown) [Example 328] | 0.1 to 1 µM |
| CC(C)CC1CN(c2cccc(F)c2)c2cc(Cl)c(-c3cccc(C(=O)O)c3)cc2S(=O)(=O)N1C (stereo not shown) [Example 329] | 0.1 to 1 µM |
| CC(C)CC1CN(c2ccccc2F)c2cc(Cl)c(-c3cccc(C(=O)O)c3)cc2S(=O)(=O)N1C (stereo not shown) [Example 330] | 0.1 to 1 µM |
| CC(C)CC1CN(c2ccc(F)cc2)c2cc(Cl)c(-c3cccc(C(=O)O)c3)cc2S(=O)(=O)N1C (stereo not shown) [Example 331] | 0.1 to 1 µM |
| CN1[C@H](C2CCCCC2)CN(c2ccccc2)c2cc(OCc3ccccc3)c(-c3ccc(F)c(C(=O)O)c3)cc2S1(=O)=O [Example 332, (R)-5-(7-(benzyloxy)-3-cyclohexyl-2-methyl-1,1-dioxido-5-phenyl-2,3,4,5-tetrahydrobenzo[f][1,2,5]thiadiazepin-8-yl)-2-fluorobenzoic acid] | < 0.1 µM |
| CN1[C@H](C2CCCCC2)CN(c2ccccc2)c2cc(OCc3ccoc3)c(-c3ccc(F)c(C(=O)O)c3)cc2S1(=O)=O [Example 333] | < 0.1 µM |
| CN1[C@H](C2CCCCC2)CN(c2ccccc2)c2cc(OCc3ccco3)c(-c3ccc(F)c(C(=O)O)c3)cc2S1(=O)=O [Example 334] | < 0.1 µM |
| CN1[C@H](C2CCCCC2)CN(c2ccccc2)c2cc(OCc3cccs3)c(-c3ccc(F)c(C(=O)O)c3)cc2S1(=O)=O [Example 335] | < 0.1 µM |
| CC(Oc1cc2c(cc1-c1ccc(F)c(C(=O)O)c1)S(=O)(=O)N(C)[C@H](C1CCCCC1)CN2c1ccccc1)c1ccsc1 (stereo partly shown) [Example 337] | < 0.1 µM |
| Cc1cscc1COc1cc2c(cc1-c1ccc(F)c(C(=O)O)c1)S(=O)(=O)N(C)[C@H](C1CCCCC1)CN2c1ccccc1 [Example 338] | < 0.1 µM |
| Cc1sccc1COc1cc2c(cc1-c1ccc(F)c(C(=O)O)c1)S(=O)(=O)N(C)[C@H](C1CCCCC1)CN2c1ccccc1 [Example 339] | < 0.1 µM |
| CN1[C@H](C2CCCCC2)CN(c2ccccc2)c2cc(OCc3nccs3)c(-c3ccc(F)c(C(=O)O)c3)cc2S1(=O)=O [Example 340] | < 0.1 µM |
| CN1[C@H](C2CCCCC2)CN(c2ccccc2)c2cc(OCc3cscn3)c(-c3ccc(F)c(C(=O)O)c3)cc2S1(=O)=O [Example 341] | < 0.1 µM |
